Patent US20090069319A1, “IMIDAZOPYRIDINE ANALOGS AND THEIR USE AS AGONISTS OF THE WNT-BETA-CATENIN CELLULAR MESSAGING SYSTEM” (Wyeth, priority 2007, published 2009)

How the values were obtained:
[1] = Functional Dkk1-LRP5-TCF-Luciferase Assay in U2OS Cells (table columns: A=MAX FOLD Induction/DMSO CONTROL; B=fold induction @ 2.0 uM; C=fold induction @ 20.0 uM); assay type: cell-based, Human; details: Homo sapiens; for fold induction at 2 µM / fold induction at 20 µM: U2OS; for fold induction at 2 µM: 2.0 uM compound; for fold induction at 20 µM: 20.0 uM compound; for EC50: U2OS cells, TCF-luciferase reporter
Outline: (§1)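 U2OS cells co-transfected with 16×TCF-TK-firefly luciferase, TK-Renilla control, Wnt3a and Dkk1, then frozen; thawed cells (~5,000/well, ~5% FBS, phenol red-free RPMI) incubated ~20 h at 37° C. with compound (0.25% DMSO). Firefly luminescence (Bright-Glo) normalized to DMSO mean as fold induction.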

[2] = system: canonical Wnt-β-catenin cellular messaging system (16xTCF-TK-FireFly-Luci reporter, Wnt3a and Dkk1 co-transfected U2OS cells); assay: as above; assay type: cell-based, Human; details: maximum fold induction over DMSO control
Outline: as §1

Compound	fold induction at 2 µM [1]	fold induction at 20 µM [1]	A = MAX FOLD Induction/DMSO CONTROL [2]	EC50 [1]
COc1ncccc1-c1nc2cc(-c3ccc4ccccc4c3)cnc2n1C1CCNCC1 [2-(2-methoxypyridin-3-yl)-6-(2-naphthyl)-3-piperidin-4-yl-3H-imidazo[4,5-b]pyridine]	2.06	0.02	2.030	–
c1ccc2cc(-c3ccnc4c3ncn4[C@H]3CCNC3)ccc2c1 [7-(2-naphthyl)-3-[(3S)-pyrrolidin-3-yl]-3H-imidazo[4,5-b]pyridine]	2.1	0.44	2.780	–
CN(C)C(=O)N1CCC(n2cnc3c(-c4ccc5ccccc5c4)ccnc32)CC1 [N,N-dimethyl-4-[7-(2-naphthyl)-3H-imidazo[4,5-b]pyridin-3-yl]piperidine-1-carboxamide]	1.94	2.09	1.080	–
c1ccc2cc(-c3cnc4c(c3)nc(-c3ccc5c(c3)OCO5)n4C3CCNCC3)ccc2c1 [2-(1,3-benzodioxol-5-yl)-6-(2-naphthyl)-3-piperidin-4-yl-3H-imidazo[4,5-b]pyridine]	–	–	1.860	0.737 µM
Fc1ccc(-c2nc3c(-c4ccc5ccccc5c4)ccnc3n2C2CCNCC2)cc1 [2-(4-fluorophenyl)-7-(2-naphthyl)-3-piperidin-4-yl-3H-imidazo[4,5-b]pyridine]	2.07	–	1.370	–
Oc1cccc(-c2nc3cc(-c4ccc5ccccc5c4)cnc3n2C2CCNCC2)c1 [3-[6-(2-naphthyl)-3-piperidin-4-yl-3H-imidazo[4,5-b]pyridin-2-yl]phenol]	–	–	1.860	1.22 µM
c1ccc2cc(-c3ccnc4c3nc(-c3ccncc3)n4C3CCNCC3)ccc2c1 [7-(2-naphthyl)-3-piperidin-4-yl-2-pyridin-4-yl-3H-imidazo[4,5-b]pyridine]	1.89	2.27	1.650	–
c1ccc2cc(-c3ccnc4c3ncn4[C@H]3CCCNC3)ccc2c1 [7-(2-naphthyl)-3-[(3S)-piperidin-3-yl]-3H-imidazo[4,5-b]pyridine]	1.02	0.01	2.303	0.018 µM
c1c[nH]c(-c2nc3cc(-c4ccc5ccccc5c4)cnc3n2C2CCNCC2)c1 [6-(2-naphthyl)-3-piperidin-4-yl-2-(1H-pyrrol-2-yl)-3H-imidazo[4,5-b]pyridine]	1.01	1.99	1.580	–
c1ccc2cc(-c3ccnc4c3ncn4C3CCNCC3)ccc2c1 [7-(2-naphthyl)-3-piperidin-4-yl-3H-imidazo[4,5-b]pyridine]	5.4	0.063	3.881	0.725 µM
c1ccc2cc(-c3ccnc4c3ncn4CC3CCNCC3)ccc2c1 [7-(2-naphthyl)-3-(piperidin-4-ylmethyl)-3H-imidazo[4,5-b]pyridine]	2.72	–	1.930	–
